Data as given in patent US5175156A, “Chromic picolinate treatment” (Nutrition 21, priority 1991, dated 1992).
Values joined by “and” are separate entries in the source; they are usually repeats but may differ in a detail not shown here. Equal values may be shown once. “Also recorded” adds a separate entry of the source.

How the values were obtained:
[1] = tested on: Glucose Tolerance Factor activity; assay: Glucose Tolerance Factor activity; settings: no data given
[2] = in vivo
Experimental: Subjects for the study were obtained after screening a group of volunteers. Thirty-two volunteers age 25-80 with total cholesterol levels of 5.7-8.3 mmoles/l (220-320 mg/dl) were initially chosen. […] None of the subjects was using beta blockers, thiazide diuretics, steroids, chromium supplements or any investigational drugs. The volunteers were requested not to alter dietary or exercise habits during the course of the study. Informed consent was obtained and the subjects were paid a stipend for their participation.
For the double-blind, cross-over study, subjects were divided randomly into two treatment groups by a non-participant. During each half of the study participants ingested gelatin capsules that contained either chromic tripicolinate or a placebo. The chromic tripicolinate supplement contained 1.6 mg chromium tripicolinate (200 micrograms Cr^+3) mixed with 5 mg calcium phosphate. The placebo contained only 5 mg calcium phosphate. The study consisted of two 42-day periods with a 14-day period off capsules between treatments. Compliance by subjects was monitored by capsule count.
At the beginning, after three weeks and at the end of each period, heart rate, blood pressure, weight and temperature were measured and a fasting-blood sample was drawn. Serum parameters measured included total cholesterol, LDL-cholesterol, HDL-cholesterol, triglycerides, apolipoprotein A1 and apolipoprotein B. Serum concentrations of cholesterol and triglycerides were determined with an Olympus 500 Automated Colormetric System (Olympus Instrument Co., Los Angeles, Calif., U.S.A.). HDL-cholesterol was assayed with an enzyme heparin-manganese chloride precipitation method (Albers et al., Clin Chem., 1978; 24:853-856). LDL-cholesterol was estimated by the method of Friedwald (Friedwald, Clin Chem., 1972; 18:499-502). Concentrations of apolipoprotein A1 and apolipoprotein B in serum were assayed with a nephelometric immunoassay (Naito, J. Clin. Immunol.. 1986; 9:110-120) using a Boehringer laser kit.
For statistical analysis of the measurements made in this study, the values obtained at the beginning and at the end of each 42-day period were used. Because each subject served as its own control, paired t tests were used to identify statistically significant differences between mean values of changes and differences in changes. Student's t test and p values were determiend with the program WORMSTAT™ (available from Small Business Computers, New England, Conn., U.S.A.).

[3] = tested on: insulin and insulin receptors; assay: Binding to insulin and insulin receptors; settings: no data given
[4] = Absorption of orally administered chromium-51 compounds, radioactivity in liver and kidney (Example 1); settings: rat; for Total radioactivity in tissue, Kidney / Total radioactivity in tissue, Liver: 150 ng oral gavage, 120 h after administration
Experimental: In this example, chromic tripicolinate was first synthesized by combining 3.66 grams of picolinic acid (Sigma Chemical, St. Louis) and 2.66 grams of chromic chloride with 20 ml. of deionized water. The solution was heated with stirring for 15 minutes after which the contents were placed in a refrigerator overnight to obtain maximum crystalization. The supernatant was removed by vacuum filtration followed by recrystalization from hot deionized water. To synthesize chromic (chromium-51) tripicolinate, 0.12 micromoles recrystalized picolinic acid was added to a solution containing 0.03 micromoles of chromic (Cr^51) chloride in 5.0 ml. acetate buffer, pH 5.0. The solution was stirred for 30 minutes at 90° C., cooled and subsequently reheated for 30 minutes at 90° C. The solution was cooled to room temperature before use.
Each of four male Sprague-Dawley rats weighing 125-150g was given an oral dose of 150 ng. chromic (Cr-51) picolinate in 0.51 ml. by gavage tube. An identical quantity of Cr-5I as chloride in acetate buffer was also administered to each of four rats. […] One hundred twenty hours after oral administration of the two forms of labeled chromium, each of the rats was killed by exsanguination after which the liver and kidneys were removed and cut into 1.0 g portions for assay of radioactivity content.

[5] = Anabolic effect in male university students in weight training (Example 5); type: in vivo, human
Experimental: This study was performed to evaluate the anabolic effect of chromic tripicolinate in male subjects.
At the start of the study, 10 male university students enrolled in weight training classes, were given, at random, a 40-day supply of capsules that contained either placebo (5 mg of calcium phosphate) or chromic tripicolinate ([…] chromic tripicolinate admixed with 5 mg of calcium phosphate, which provided 200 ug of chromium). The identity of the capsules was known only to an individual who was not in any way involved in the study. During the 40-day period, each of the volunteers followed a prescribed weight lifting protocol for a total of 3 hours per week. Measurements taken at the beginning and again at the end of the study included various skin-fold thicknesses, biceps and calf circumferences, and body weight. Percent body fat was derived from the sum of the triceps, subscapular and chest skinfolds. Lean body mass was derived from anthropometrically-determined percent body fat: weight-(weight×percent body fat).

[6] = tested on: serum lipid parameters; assay: Double-blind cross-over human study, serum lipid parameters (Example 3); type: in vivo
Experimental: Chromium tripicolinate was synthesized by first dissolving 2.66 g CrCl3.6 H2 O in 25 ml warm (60° C.), deionized water. Thereafter, 3.69 g picolinic acid (Sigma Chemical, St. Louis, Mo., U.S.A.) was added and the contents were stirred with gentle heating until the solution turned purple and crystals began to form. The solution was then left standing at 4° C. overnight. The supernatant was then discarded and the crystals were airdried at room temperature.
The placebo contained only 5 mg calcium phosphate. […] Compliance by subjects was monitored by capsule count. The foregoing study protocol is illustrated in FIG. 1.

[7] = tested on: adult onset diabetes mellitus (AODM)
Experimental: Eleven subjects with adult onset diabetes mellitus (AODM), participated in this study. These subjects had hemoglobin A1 C concentrations greater than 9.0 and were on stable doses of oral hypoglycemic agents for four months. […] The dose of oral agent remained constant during the study.
The following parameters: Cholesterol, HDL, LDL, and hemoglobin A1 C were tested initially, and at the end of each half of the study. Fasting blood sugars, blood pressure, weight and temperature were tested initially; at three weeks; and at the end of the study.
Glycosylated hemoglobin was measured by a modification of the method of Clegg and Schroeder (Clegg, et al. J. Lab Clin. Med., 102:577-589, (1983)), using a Fast Hemoglobin Minicolumn, available from Isolab; Akron, Ohio, U.S.A.). Normal values are 5.5 to 7.5%. Fasting glucoses were measured by finger stick glucometer readings (using an Accucheck II from Boehringer Mannheim, Indianapolis, Ind., U.S.A.).
Split samples of cholesterol were sent to laboratories for analysis. Split samples of apolipoproteins were analyzed on a Beckman Array protein analyzer that was standardized by the Center for Disease Control, Atlanta, Georgia, U.S.A., using Lipid Research Clinic Guidelines (see J. A. M. A. 251: 351, (1984) and J. A. M. A. 251: 365, (1984)).
For EXAMPLE 4, summary statistics are expressed as the mean ± standard error of the mean (SEM). Split-plot analyses of variance were used to assess treatment effects on the various parameters in the cross-over studies of variance (see Hills, et al., Br. J. Clin. Pharmacol. 8:7-20, (1979)). Correlation analysis was performed with a linear regression curve-fitting program.

[8] = Oral toxicity experiment in rats (Example 2); type: in vivo
Experimental: In a toxicity experiment, rats weighing a mean of 223.4 g were given an oral suspension of 100 mg, 300 mg and 500 mg chromic tripicolinate in water. […] The tests were stopped at 500 mg because it was impossible to obtain a workable suspension beyond this level.

[9] = in vivo; cited from earlier work
[10] = 28 subjects, mean ± SD, 42 days
[11] = 28 subjects, mean ± SD, 42 days, listed as Chromic Tripicolinate
[12] = 28 subjects, mean ± SD, start of 42-day period
[13] = combined results, 42 days, p<0.001
[14] = 6 weeks Cr supplementation, 11 AODM subjects, mean ± SEM
[15] = 6 weeks Cr supplementation, 11 AODM subjects, mean ± SEM, significant difference from placebo, p <0.05

chromic tripicolinate
Glucose Tolerance Factor activity [1]: has Glucose Tolerance Factor activity | blood pressure, change in words [2]: No significant changes | heart rate, change in words [2]: No significant changes | subjects who developed a fine rash about their forearms [2]: one | subjects who developed mouth ulcers [2]: one | temperature, change in words [2]: No significant changes | binding to insulin and insulin receptors [3]: binds to insulin and insulin receptors | rate of absorption relative to chromic chloride ([4]; in vivo, po, 7200 min): about 4 times | calculated lean body mass, increase ([5]; 40 days, 200 ug chromium, P=0.017): 1.6 kg | calf circumference, increase ([5]; 40 days, 200 ug chromium, P=0.029): 1.15±0.67 cm | body weight, increase ([5]; 40 days, 200 ug chromium, P=0.0325): 2.18 ± 1.34 kg | increase in lean body mass compared with placebo group ([5]; Student's t test, P=0.0198): significantly greater | Apo B, change ([6]; 28 subjects, 42 days, p = .001): -25 mg/dL | Apo A, change ([6]; 28 subjects, 42 days, p = .003): +16 mg/dl | apolipoprotein B, reduction ([6]; 28 subjects, 42 days, p=0.001): 16% | LDL-cholesterol, final ([6]; 28 subjects, after 42 days): 178 mg/dL | LDL-cholesterol, initial ([6]; 28 subjects, before 42 days): 200 mg/dL | Apo A, final [6, 10]: 163 ± 31 mg/dL | Apo B, final [6, 10]: 130 mg/dL | Cholesterol Total, final [6, 10]: 256 mg/dL | LDL, final [6, 10]: 5.1 mmol/L | Cholesterol Total, final ([6]; 28 subjects, mean ± SD, 42 days, 200 micrograms Cr daily): 6.6 mmol/L | Cholesterol Total, final ([6]; 28 subjects, mean ± SD, 42 days, 200 micrograms Cr daily, listed as Chromic Tripicolinate): 6.6 ± 1.0 mmol/L | Apo B, final [6, 11]: 130 ± 45 mg/dL | Cholesterol Total, final [6, 11]: 256 ± 41 mg/dL | Apo A, initial [6, 12]: 147 ± 28 mg/dL | Apo B, initial [6, 12]: 155 mg/dL | LDL, initial [6, 12]: 5.7 mmol/L | Apo B, initial ([6]; 28 subjects, mean ± SD, start of 42-day period, listed as Chromic Tripicolinate): 155 ± 50 mg/dL | serum HDL-cholesterol, change in words ([6]; 28 subjects, p>0.05): increased slightly but not significantly | LDL-cholesterol, decrease ([6]; 42 days): 10% and 10.5% | Total cholesterol concentration, decrease ([6]; 42 days): 7% | serum triglycerides, change in words ([6]; 42 days): No significant changes | LDL-cholesterol, change in words [6, 13]: decreased significantly; also recorded: significant (p<0.001) reductions | total cholesterol, change in words [6, 13]: decreased significantly; also recorded: significant (p<0.001) reductions | apolipoprotein B, change in words ([6]; combined results, 42 days, p=0.001): significant reduction; also recorded: decreased significantly | apolipoprotein A1, change in words ([6]; combined results, 42 days, p=0.003): significant elevation; also recorded: significantly elevated | LDL-cholesterol, change in words ([6]; final 42 days, placebo-first group, p=0.003): decreased significantly | total cholesterol, change in words ([6]; final 42 days, placebo-first group, p=0.009): decreased significantly | apolipoprotein B, change in words ([6]; first 6-week period, subjects starting with chromic tripicolinate, p=0.003): significantly decreased | total cholesterol, change in words ([6]; first 6-week period, subjects starting with chromic tripicolinate, p=0.007): significantly decreased | LDL-cholesterol, change in words ([6]; first 6-week period, subjects starting with chromic tripicolinate, p=0.015): significantly decreased | apolipoprotein A1, change in words ([6]; first 6-week period, subjects starting with chromic tripicolinate, p=0.047): significantly elevated | subjects with decreased LDL-cholesterol ([6]; of 28 subjects): 20 | subjects with elevated cholesterol ([6]; of 28 subjects): 4 | subjects with lower total cholesterol ([6]; of 28 subjects): 22 | subjects with unchanged LDL-cholesterol ([6]; of 28 subjects): 3 | subjects with unchanged total cholesterol ([6]; of 28 subjects): 2 | apolipoprotein B, change in words ([6]; placebo-first group, after chromic tripicolinate, p=0.072): decreased, but not significantly | apolipoprotein A1, change in words ([6]; placebo-first group, chromic tripicolinate period, p=0.007): increased significantly | Cholesterol [7, 14]: 211.4 | HDL [7, 14]: 52.3 | LDL [7, 14]: 139.5 | Fasting Bld Sugar [7, 15]: 162.2 | Hemoglobin A1 C [7, 15]: 10.4 | HDL, trend in words ([7]; P was not <0.05): trends were favorable | cholesterol, trend in words ([7]; P was not <0.05): trends were favorable | fasting glucose, change in words ([7]; diabetic subjects): significant decreases | glycosylated hemoglobin, change in words ([7]; diabetic subjects): significant decreases | Blood Pressure, first figure ([7]; human, in vivo): 132.9 | Blood Pressure, second figure ([7]; human, in vivo): 72.4 | Heart Rate ([7]; human, in vivo): 70.1 | Temperature ([7]; human, in vivo): 97.8 °F | blood pressure, change in words ([7]; human, in vivo): no significant changes | heart rate, change in words ([7]; human, in vivo): no significant changes | temperature, change in words ([7]; human, in vivo): no significant changes | weight, change in words ([7]; human, in vivo): no significant changes | LDL, decrease ([7]; treatment versus placebo (FIG. 9)): 8% | human dose before any effects would be observed ([8]; 70 Kg human, extrapolated from rats): greater than 156 grams | oral lethal dose ([8]; rats, mean 223.4 g, oral suspension in water): > 2.2 g/kg | deaths ([8]; rats, oral 100 mg, 300 mg and 500 mg): No deaths occurred

[Cl][51Cr]([Cl])[Cl] [Chromic (Cr-51) Chloride, chromic (Cr^51) chloride, reference compound]
Total radioactivity in tissue, Kidney [4]: 39030 CPM | Total radioactivity in tissue, Liver [4]: 30050 CPM

[Cl][Cr]([Cl])[Cl] [chromic chloride, reference compound]
effect of supplementation, result in words [9]: improvements of risk factors associated with maturity-onset diabetes and cardiovascular diseases

[Cr] [chromium]
effect of supplementation, result in words [9]: improvements in glucose tolerance, serum lipid concentrations, including high-density lipoprotein cholesterol, insulin and insulin binding

O=C([O-])c1ccccn1.O=C([O-])c1ccccn1.O=C([O-])c1ccccn1.[Cr+3] [Chromic (Cr-51) Picolinate, chromic (chromium-51) tripicolinate]
Total radioactivity in tissue, Kidney [4]: 157525 CPM | Total radioactivity in tissue, Liver [4]: 115075 CPM
